Measured values from paper PMC5125710, “Mechanistic Studies and Modeling Reveal the Origin of Differential Inhibition of Gag Polymorphic Viruses by HIV-1 Maturation Inhibitors” (PLoS Pathogens, 2016).
“And” between values parts separate entries of the source, which are not always exact repeats. Identical values can stand only once. Like-named read-outs stand apart in the source and are kept apart here.

Assays:
[1] = system: LAI pseudotyped NLRepRlucP373 Δenv; type: cell-based; conditions: for Inhibition of luciferase production: compound added only at the infection stage (second step); for Inhibition of luciferase activity in the infection stage: compound added at the transfection step (first step)
[2] = system: HIV-1 NLRepRlucP373S V362I; assay: microbe, parasite or virus in culture; type: cell-based; conditions: for log10 reduction in virus, multiple cycle antiviral assay, maximal inhibition: V362I, calculated from MC MPI; for EC50: Human immunodeficiency virus 1, V362I virus
[3] = system: HIV-1 NLRepRlucP373S Q369H; assay: microbe, parasite or virus in culture; type: cell-based; conditions: Human immunodeficiency virus 1, MC assay
[4] = system: HIV-1 NLRepRlucP373S V370A; assay: microbe, parasite or virus in culture; type: cell-based; conditions: for log10 reduction in virus, multiple cycle antiviral assay, maximal inhibition: V370A, calculated from MC MPI; for EC50: Human immunodeficiency virus 1, V370A virus
[5] = system: HIV-1 NLRepRlucP373S ΔV370; assay: microbe, parasite or virus in culture; type: cell-based; conditions: for EC50: Human immunodeficiency virus 1; for log10 reduction in virus, multiple cycle antiviral assay, maximal inhibition: ΔV370, calculated from MC MPI
[6] = system: HIV-1 NLRepRlucP373S T371A; assay: microbe, parasite or virus in culture; type: cell-based; conditions: Human immunodeficiency virus 1, MC assay
[7] = system: HIV-1 NLRepRlucP373S (WT); type: cell-based; conditions: for SC Assay MPI (%): WT virus; for log10 reduction in virus, single cycle antiviral assay, maximal inhibition: WT, calculated from SC MPI
[8] = system: HIV-1 NLRepRlucP373S V370A; type: cell-based; conditions: for SC Assay MPI (%): V370A virus; for log10 reduction in virus, single cycle antiviral assay, maximal inhibition: V370A, calculated from SC MPI
[9] = system: HIV-1 NLRepRlucP373S ΔV370; type: cell-based; conditions: for log10 reduction in virus, single cycle antiviral assay, maximal inhibition: ΔV370, calculated from SC MPI; for SC Assay MPI (%): ΔV370 virus
WT HIV-1 Gag VLPs = target: T1, WT HIV-1 Gag VLPs (Human immunodeficiency virus type 1 group M subtype B, UniProt P03348); assay: SPA radiolabeled competition binding assay, WT VLPs; parameters: Kd FC vs. WT: unit not given beside the values
T1 construct: constructed to encode full length HIV-1 LAI Gag; made in house; host or cells: 293T cells, transfected with pGagOpt plasmid; VLPs pelleted from supernatant

V362I HIV-1 Gag VLPs = target: T2, V362I HIV-1 Gag VLPs (Human immunodeficiency virus type 1 group M subtype B, UniProt P03348, V362I); assay: biochemical; type: binding; parameters: Kd FC vs. WT: unit not given beside the values
T2 construct: constructed to encode full length HIV-1 LAI Gag; made in house; host or cells: 293T cells, transfected with pGagOpt plasmid

V370A HIV-1 Gag VLPs = target: T3, V370A HIV-1 Gag VLPs (Human immunodeficiency virus type 1 group M subtype B, UniProt P03348, V370A); assay: biochemical; type: binding; parameters: Kd FC vs. WT: unit not given beside the values
T3 construct: constructed to encode full length HIV-1 LAI Gag; made in house; host or cells: 293T cells, transfected with pGagOpt plasmid

ΔV370 HIV-1 Gag VLPs = ΔV370 HIV-1 Gag VLPs (Human immunodeficiency virus type 1 group M subtype B, UniProt P03348, DEL370-370); assay: SPA radiolabeled competition binding assay, ΔV370 VLPs; parameters: Kd FC vs. WT: unit not given beside the values; conditions: for Kd FC vs. WT: ΔV370 VLP
[10] = target: T4, CA/SP1 cleavage of WT Gag VLPs by HIV-1 protease (Human immunodeficiency virus type 1 group M subtype B, UniProt P03348); type: biochemical; conditions: 3 μM MI
T4 construct: constructed to encode full length HIV-1 LAI Gag; made in house; host or cells: Gag VLPs from transfected 293T cells

[11] = target: CA/SP1 cleavage of ΔV370 Gag VLPs by HIV-1 protease (Human immunodeficiency virus type 1 group M subtype B, UniProt P03348, DEL370-370); assay: HIV-1 VLP protease cleavage assay (LC/MS), ΔV370 VLPs; type: biochemical; conditions: 3 μM MI
[12] = system: HIV-1 NLRepRlucP373S (WT); assay: microbe, parasite or virus in culture; type: cell-based; conditions: for MC Assay MPI (%): maximal percent inhibition at two highest drug concentrations
[13] = system: HIV-1 NLRepRlucP373S V370M; assay: microbe, parasite or virus in culture; type: cell-based; conditions: for EC50: Human immunodeficiency virus 1, MC assay
[14] = system: HIV-1 NLRepRlucP373S V370A/Δ371T; assay: microbe, parasite or virus in culture; type: cell-based; conditions: for EC50: Human immunodeficiency virus 1, MC assay
[15] = system: HIV-1 NLRepRlucP373S ΔT371; assay: microbe, parasite or virus in culture; type: cell-based; conditions: for EC50: Human immunodeficiency virus 1, MC assay
[16] = from mean C24 and free fraction of 0.14
HIV-1 = conditions: cited from earlier work

SMILES | Inhibition of luciferase production [1] | MC Assay MPI (%) ([2]; V362I virus) | log10 reduction in virus, multiple cycle antiviral assay, maximal inhibition [2] [log10] | MC Assay MPI (%) ([4]; V370A virus) | log10 reduction in virus, multiple cycle antiviral assay, maximal inhibition [4] [log10] | EC50 ([5]; ΔV370 virus, MC assay) [nM] | log10 reduction in virus, multiple cycle antiviral assay, maximal inhibition [5] [log10] | MC Assay MPI (%) ([5]; ΔV370 virus) | EC50 [6] [nM] | SC Assay MPI (%) [7] | log10 reduction in virus, single cycle antiviral assay, maximal inhibition [7] [log10] | SC Assay MPI (%) [8] | Inhibition of luciferase activity in the infection stage [1] | Kd FC vs. WT (WT HIV-1 Gag VLPs; WT VLP) | Kd FC vs. WT (V362I HIV-1 Gag VLPs; V362I VLP) | Kd FC vs. WT (V370A HIV-1 Gag VLPs; V370A VLP) | EC50 ([2]; MC assay) [nM] | EC50 [13] [nM] | EC50 [14] [nM] | EC50 [15] [nM] | also measured
COc1ccnc2[nH]cc(C(=O)C(=O)N3CCN(C(=O)c4ccccc4)C[C@H]3C)c12 [BMS-378806, 4-benzoyl-1-[(4-methoxy-1H-pyrrolo[2,3-b]pyridin-3-yl)oxoacetyl]-2-(R)-methylpiperazine] | fully active |  |  |  |  |  |  |  |  |  |  |  |  |  |  |  |  |  |  |  | 
C=C(C)[C@@H]1CC[C@]2(C(=O)O)CC[C@]3(C)[C@H](CC[C@@H]4[C@@]5(C)CC[C@H](OC(=O)CC(C)(C)C(=O)O)C(C)(C)[C@@H]5CC[C@]43C)[C@@H]12 [BVM, bevirimat, reference compound] |  | 81.3 +/- 2.0% and 81.3% | -0.73 | 65.4 +/- 3.8% and 65.4% | -0.46 | > 10000 | -0.04 | 9.2+/- 6.3% and 9% and 9.2% | 40 | 82.3 +/- 2.7% and 82% and 82.3% | -0.71 | 19% and 19.0 +/- 3.5% | inhibiting luciferase production only when added in the first step | 1.0 | 2.9 | 9.1 |  |  |  |  | EC50 [3]: 7 nM; log10 reduction in virus, single cycle antiviral assay, maximal inhibition [8]: -0.08 log10; log10 reduction in virus, single cycle antiviral assay, maximal inhibition [9]: 0.06 log10; SC Assay MPI (%) [9]: -26% and -25.6%; Kd FC vs. WT (ΔV370 HIV-1 Gag VLPs): 48; Inhibition of CA/SP1 cleavage ([10]; 2 hours): 39%; Inhibition of CA/SP1 cleavage ([10]; 4 hours): 1%; Inhibition of CA/SP1 cleavage ([11]; whole time course): not inhibitory at any time point
C=C(C)[C@@H]1CC[C@]2(NCCN3CCS(=O)(=O)CC3)CC[C@]3(C)[C@H](CC[C@@H]4[C@@]5(C)CC=C(c6ccc(C(=O)O)cc6)C(C)(C)[C@@H]5CC[C@]43C)[C@@H]12 [BMS-955176] |  | 93.8 +/- 1.8% and 93.8% | -1.20 | 98.2 +/- 1.3% and 98.2% | -1.73 | 13 | -1.09 | 91.9 +/- 4.4% and 92% and 91.9% | 2 | 93.0 +/- 2.5% and 93% | -1.15 | 76.5 +/- 3.0% and 76.5% | inhibiting luciferase production only when added in the first step | 1.0 | 1.3 | 2 | 4.5 | 2.8 | 6.6 | 7.3 | MC Assay MPI (%) ([12]; WT virus): 100 +/- 0.4% and 100%; log10 reduction in virus, multiple cycle antiviral assay, maximal inhibition ([12]; WT, calculated from MC MPI): < -2.00 log10; EC50 ([4]; MC assay): 2.7 nM; log10 reduction in virus, single cycle antiviral assay, maximal inhibition [8]: -0.64 log10; log10 reduction in virus, single cycle antiviral assay, maximal inhibition [9]: -0.27 log10; SC Assay MPI (%) [9]: 45.9%; Kd (WT HIV-1 Gag VLPs): 3.2 nM; Kd (V362I HIV-1 Gag VLPs): 4.3 nM; Kd (V370A HIV-1 Gag VLPs): 6.5 nM; Kd (ΔV370 HIV-1 Gag VLPs): 33.6 nM; Kd FC vs. WT (ΔV370 HIV-1 Gag VLPs): 10; Inhibition of CA/SP1 cleavage ([10]; 4 hours): sustained inhibition; Inhibition of CA/SP1 cleavage ([11]; 4 hour time point): 13%; Mean free concentration [16]: 213 nM; Clinical VLR, maximal median HIV-1 log10 RNA reduction (HIV-1; subtype B Gag polymorphs (compared to V370A, V362I), 40 mg): -1.71 log10; Clinical VLR, maximal median HIV-1 log10 RNA reduction (HIV-1; subtype B WT genotype, 40 mg QD, 10 day monotherapy): -1.75 log10; Clinical VLR, maximal median HIV-1 log10 RNA reduction (HIV-1; subtype C viruses (compared to ΔV370), 40 mg): -1.35 log10
Cc1c(O)cccc1C(=O)N[C@@H](CSc1ccccc1)[C@H](O)CN1C[C@H]2CCCC[C@H]2C[C@H]1C(=O)NC(C)(C)C [NFV, nelfinavir, reference compound] | luciferase production is not inhibited | 100% |  | 99.9% |  | 5.2 |  |  |  | 99.3% |  | 99.0% | luciferase activity is inhibited |  |  |  | 4.3 | 4.5 | 5.7 | 2 | EC50 ([12]; Human immunodeficiency virus 1, WT virus, MC assay): 4.3 nM; FC = EC50 (SDM)/EC50 (WT) ([12]; WT virus, MC assay): 1.0; MC Assay MPI (%) ([12]; WT virus): 100%; FC = EC50 (SDM)/EC50 (WT) ([2]; V362I virus, MC assay): 1.0; EC50 ([4]; MC assay): 4.1 nM; FC = EC50 (SDM)/EC50 (WT) ([4]; V370A virus, MC assay): 1.0; FC = EC50 (SDM)/EC50 (WT) ([13]; V370M virus, MC assay): 1.0; FC = EC50 (SDM)/EC50 (WT) ([5]; ΔV370 virus, MC assay): 1.2; FC = EC50 (SDM)/EC50 (WT) ([14]; MC assay): 1.3; FC = EC50 (SDM)/EC50 (WT) ([15]; ΔT371 virus, MC assay): 0.5
C=C(C)[C@@H]1CC[C@]2(C(=O)O)CC[C@]3(C)[C@H](CC[C@@H]4[C@@]5(C)CC=C(c6ccc(C(=O)O)cc6)C(C)(C)[C@@H]5CC[C@]43C)[C@@H]12 [BMS-1] |  | 71.4 +/- 5.4% and 71.4% |  |  |  | > 6000 |  | 3.7 +/- 2.9% and 3.7% | 28 |  |  |  |  | 1.0 | 1.9 | 7.0 | 213 | > 4000 | > 10000 | 292 | Kd (WT HIV-1 Gag VLPs; WT VLP, competition displacement of [3H]-BMS-977660, read-out: Kd): 25.4 nM; Kd (V362I HIV-1 Gag VLPs; V362I VLP, competition displacement of [3H]-BMS-977660, read-out: Kd): 49 nM; Kd (V370A HIV-1 Gag VLPs; V370A VLP, competition displacement of [3H]-BMS-977660, read-out: Kd): 177 nM
